Laboratory results published in patent US9938273B2 (Plexxikon Inc., priority 2015, dated 2018).
pIC50: −log10 of the molar value.

Experiments:
[1] = system: MOLM-14 D835Y cells, FLT3 ITD and FLT3 D835Y; assay: Cell proliferation assay (CellTiter-Glo), MOLM-14 D835Y; assay type: cell-based; settings: Homo sapiens, 72 h, 3d-Growth, GMean
Method in brief: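 Three-day growth at 37 °C, 5% CO2 under compound (1 μM top final, 1:3 dilutions, eight points, 0.2% DMSO), read as ATP luminescence by CellTiter-Glo for IC50. Cells: MOLM-14 with FLT3 ITD plus D835Y or F691L, and IL-3-deprived Ba/F3 transfected with FLT3 ITD/D835Y, 1×10^4 per well.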

[2] = target: T1, FLT3-ITD (Homo sapiens, UniProt P36888); assay: AlphaScreen kinase assay with recombinant enzyme, FLT3-ITD; assay type: biochemical; settings: 8pt; read-out: FLT3_ITD 8pt: IC50
T1 sequence (P36888 1-993): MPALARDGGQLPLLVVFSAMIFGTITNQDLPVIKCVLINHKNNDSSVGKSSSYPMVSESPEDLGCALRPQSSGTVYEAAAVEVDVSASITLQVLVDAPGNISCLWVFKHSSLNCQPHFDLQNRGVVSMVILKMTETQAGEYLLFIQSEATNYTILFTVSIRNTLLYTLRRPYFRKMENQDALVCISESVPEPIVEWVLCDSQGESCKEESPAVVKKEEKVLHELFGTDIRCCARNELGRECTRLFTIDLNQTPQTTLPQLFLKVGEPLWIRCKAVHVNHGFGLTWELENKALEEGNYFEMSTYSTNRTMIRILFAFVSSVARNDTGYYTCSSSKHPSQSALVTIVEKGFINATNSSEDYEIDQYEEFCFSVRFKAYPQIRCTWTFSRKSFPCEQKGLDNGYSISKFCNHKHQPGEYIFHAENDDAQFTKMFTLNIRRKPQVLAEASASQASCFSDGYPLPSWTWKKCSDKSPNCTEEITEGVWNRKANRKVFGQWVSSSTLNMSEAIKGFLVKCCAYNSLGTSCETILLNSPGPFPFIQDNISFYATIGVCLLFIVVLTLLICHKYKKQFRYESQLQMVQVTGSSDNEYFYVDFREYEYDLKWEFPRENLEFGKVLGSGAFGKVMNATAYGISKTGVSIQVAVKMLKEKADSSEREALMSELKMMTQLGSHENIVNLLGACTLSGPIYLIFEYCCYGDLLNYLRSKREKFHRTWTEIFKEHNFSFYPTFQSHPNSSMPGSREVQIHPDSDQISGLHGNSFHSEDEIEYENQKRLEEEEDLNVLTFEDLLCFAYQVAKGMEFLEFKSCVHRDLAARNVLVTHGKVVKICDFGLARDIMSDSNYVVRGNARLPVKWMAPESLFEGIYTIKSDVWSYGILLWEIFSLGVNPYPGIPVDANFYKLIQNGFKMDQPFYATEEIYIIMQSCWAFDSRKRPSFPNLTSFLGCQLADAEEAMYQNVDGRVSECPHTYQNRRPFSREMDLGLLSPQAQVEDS
Method in brief: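 Tyrosine phosphorylation of biotin-poly(Glu4-Tyr) substrate by recombinant enzyme is detected with PY20 acceptor and streptavidin donor beads after room-temperature incubations of 20 and 60 min. IC50 values were derived at a final 10 μM (FLT3-D835Y, FLT3-ITD) or 100 μM (c-KIT).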

Row | pIC50 [1] | pIC50 [2] | SMILES
1 | 5.00 to 10.00 | 5.00 to 10.00 | CC(C)(C#N)NC(=O)c1cccc(-c2cnc3[nH]c(-c4cnn(C5CC5)c4)cc3c2)n1 [Compound P-0165, N-(1-cyano-1-methyl-ethyl)-6-[2-(1-cyclopropylpyrazol-4-yl)-1H-pyrrolo[2,3-b]pyridin-5-yl]pyridine-2-carboxamide]
2 | 5.00 to 10.00 | 5.00 to 10.00 | CC(C)(C#N)NC(=O)c1cccc(-c2cnc3[nH]c(-c4ccc(C5CC5)nc4)cc3c2)n1 [Compound P-0168, N-(1-cyano-1-methyl-ethyl)-6-[2-(6-cyclopropyl-3-pyridyl)-1H-pyrrolo[2,3-b]pyridin-5-yl]pyridine-2-carboxamide]
3 | 5.00 to 10.00 | 5.00 to 10.00 | CC(C)(NC(=O)c1cccc(-c2cnc3[nH]c(C4=CCN(C(=O)C5CC5)C4)cc3c2)n1)C(N)=O [Compound P-0179, N-(2-amino-1,1-dimethyl-2-oxo-ethyl)-6-[2-[1-(cyclopropanecarbonyl)-2,5-dihydropyrrol-3-yl]-1H-pyrrolo[2,3-b]pyridin-5-yl]pyridine-2-carboxamide]
4 | 5.00 to 10.00 | 5.00 to 10.00 | CC(C)(C#N)NC(=O)c1cccc(-c2cnc3[nH]c(C4=CCSCC4)cc3c2)n1 [Compound P-0180, N-(1-cyano-1-methyl-ethyl)-6-[2-(3,6-dihydro-2H-thiopyran-4-yl)-1H-pyrrolo[2,3-b]pyridin-5-yl]pyridine-2-carboxamide]
5 | 5.00 to 10.00 | 5.00 to 10.00 | CC(C)(C#N)NC(=O)c1cccc(-c2cnc3[nH]c(C4=CCN(C(=O)C5CC5)CC4)cc3c2)n1 [Compound P-0181, N-(1-cyano-1-methyl-ethyl)-6-[2-[1-(cyclopropanecarbonyl)-3,6-dihydro-2H-pyridin-4-yl]-1H-pyrrolo[2,3-b]pyridin-5-yl]pyridine-2-carboxamide]
6 | 5.00 to 10.00 | 5.00 to 10.00 | CC(C)(C#N)NC(=O)c1cccc(-c2cnc3[nH]c(-c4cnn(C5CCNCC5)c4)cc3c2)n1 [Compound P-0187, N-(1-cyano-1-methyl-ethyl)-6-[2-[1-(4-piperidyl)pyrazol-4-yl]-1H-pyrrolo[2,3-b]pyridin-5-yl]pyridine-2-carboxamide]
7 | 5.00 to 10.00 | 5.00 to 10.00 | CC(C)(C#N)NC(=O)c1cccc(-c2cnc3[nH]c(C4=CCN(S(=O)(=O)C5CC5)CC4)cc3c2)n1 [Compound P-0188, N-(1-cyano-1-methyl-ethyl)-6-[2-(1-cyclopropylsulfonyl-3,6-dihydro-2H-pyridin-4-yl)-1H-pyrrolo[2,3-b]pyridin-5-yl]pyridine-2-carboxamide]
8 | 5.00 to 10.00 | 5.00 to 10.00 | CC(C)(C#N)NC(=O)c1cccc(-c2cnc3[nH]c(-c4ccc(C5CC5)cc4)cc3c2)n1 [Compound P-0189, N-(1-cyano-1-methyl-ethyl)-6-[2-(4-cyclopropylphenyl)-1H-pyrrolo[2,3-b]pyridin-5-yl]pyridine-2-carboxamide]

Second part, the molecule before the results:

Row | SMILES | pIC50 [1] | pIC50 [2]
9 | CC(C)(C#N)NC(=O)c1cccc(-c2cnc3[nH]c(-c4cnc(C5CC5)nc4)cc3c2)n1 [Compound P-0166, N-(1-cyano-1-methyl-ethyl)-6-[2-(2-cyclopropylpyrimidin-5-yl)-1H-pyrrolo[2,3-b]pyridin-5-yl]pyridine-2-carboxamide] | 5.00 to 10.00 | 5.00 to 10.00
10 | Cc1nc(C(C)C)sc1-c1cc2cc(-c3cccc(C(=O)NC(C)(C)C#N)n3)cnc2[nH]1 [Compound P-0169, N-(1-cyano-1-methyl-ethyl)-6-[2-(2-isopropyl-4-methyl-thiazol-5-yl)-1H-pyrrolo[2,3-b]pyridin-5-yl]pyridine-2-carboxamide] | 5.00 to 10.00 | 5.00 to 10.00
11 | CC(C)(C#N)NC(=O)c1cccc(-c2cnc3[nH]c(-c4cnn(CCC#N)c4)cc3c2)n1 [Compound P-0170, 6-[2-[1-(2-cyanoethyl)pyrazol-4-yl]-1H-pyrrolo[2,3-b]pyridin-5-yl]-N-(1-cyano-1-methyl-ethyl)pyridine-2-carboxamide] | 5.00 to 10.00 | 5.00 to 10.00
12 | CC(C)(C#N)NC(=O)c1cccc(-c2cnc3[nH]c(-c4cnn(Cc5ccccc5)c4)cc3c2)n1 [Compound P-0171, 6-[2-(1-benzylpyrazol-4-yl)-1H-pyrrolo[2,3-b]pyridin-5-yl]-N-(1-cyano-1-methyl-ethyl)pyridine-2-carboxamide] | 5.00 to 10.00 | 5.00 to 10.00
13 | COCCn1cc(-c2cc3cc(-c4cccc(C(=O)NC(C)(C)C#N)n4)cnc3[nH]2)cn1 [Compound P-0172, N-(1-cyano-1-methyl-ethyl)-6-[2-[1-(2-methoxyethyl)pyrazol-4-yl]-1H-pyrrolo[2,3-b]pyridin-5-yl]pyridine-2-carboxamide] | 5.00 to 10.00 | 5.00 to 10.00
14 | CC(C)(C#N)NC(=O)c1cccc(-c2cnc3[nH]c(-c4cnn(C5CCOC5)c4)cc3c2)n1 (stereo not drawn) [Compound P-0173, N-(1-cyano-1-methyl-ethyl)-6-[2-(1-tetrahydrofuran-3-ylpyrazol-4-yl)-1H-pyrrolo[2,3-b]pyridin-5-yl]pyridine-2-carboxamide] | 5.00 to 10.00 | 5.00 to 10.00
15 | CC(C)(C#N)NC(=O)c1cccc(-c2cnc3[nH]c(-c4cnn(CCN5CCOCC5)c4)cc3c2)n1 [Compound P-0174, N-(1-cyano-1-methyl-ethyl)-6-[2-[1-(2-morpholinoethyl)pyrazol-4-yl]-1H-pyrrolo[2,3-b]pyridin-5-yl]pyridine-2-carboxamide] | 5.00 to 10.00 | 5.00 to 10.00
16 | C#Cc1cc2cc(-c3cccc(C(=O)NC(C)(C)C#N)n3)cnc2[nH]1 [Compound P-0175, N-(1-cyano-1-methyl-ethyl)-6-(2-ethynyl-1H-pyrrolo[2,3-b]pyridin-5-yl)pyridine-2-carboxamide] | 5.00 to 10.00 | 5.00 to 10.00
17 | CC(C)(C#N)NC(=O)c1cccc(-c2cnc3[nH]c(C#Cc4ccccc4)cc3c2)n1 [Compound P-0176, N-(1-cyano-1-methyl-ethyl)-6-[2-(2-phenylethynyl)-1H-pyrrolo[2,3-b]pyridin-5-yl]pyridine-2-carboxamide] | 5.00 to 10.00 | 5.00 to 10.00
18 | Cn1cncc1C#Cc1cc2cc(-c3cccc(C(=O)NC(C)(C)C#N)n3)cnc2[nH]1 [Compound P-0177, N-(1-cyano-1-methyl-ethyl)-6-[2-[2-(3-methylimidazol-4-yl)ethynyl]-1H-pyrrolo[2,3-b]pyridin-5-yl]pyridine-2-carboxamide] | 5.00 to 10.00 | 5.00 to 10.00
19 | Cc1nn(C(C)C)cc1-c1cc2cc(-c3cccc(C(=O)NC(C)(C)C#N)n3)cnc2[nH]1 [Compound P-0178, N-(1-cyano-1-methyl-ethyl)-6-[2-(1-isopropyl-3-methyl-pyrazol-4-yl)-1H-pyrrolo[2,3-b]pyridin-5-yl]pyridine-2-carboxamide] | 5.00 to 10.00 | 5.00 to 10.00
20 | CC(C)(C#N)NC(=O)c1cccc(-c2cnc3[nH]c(C4=CCNCC4)cc3c2)n1 [Compound P-0182, N-(1-cyano-1-methyl-ethyl)-6-[2-(1,2,3,6-tetrahydropyridin-4-yl)-1H-pyrrolo[2,3-b]pyridin-5-yl]pyridine-2-carboxamide] | 5.00 to 10.00 | 5.00 to 10.00
21 | CC(C)(C#N)NC(=O)c1cccc(-c2cnc3[nH]c(-c4cn[nH]c4)cc3c2)n1 [Compound P-0183, N-(1-cyano-1-methyl-ethyl)-6-[2-(1H-pyrazol-4-yl)-1H-pyrrolo[2,3-b]pyridin-5-yl]pyridine-2-carboxamide] | 5.00 to 10.00 | 5.00 to 10.00
